The subject of this assay is predendritic cells (DC-6). Briefly: Dendritic cell maturation: FITC-Dextran conjugate incorporation. The note with it: 0.02% g to 25 μg per ml; FIGS. 4, 5.

Consider one compound from patent US7157092B1, “Acyl pseudodipeptides, preparation method and pharmaceutical compositions containing same” (Om Pharma, priority 1998, dated 2007).

For the compound `CCCCCCCCCCCC(=O)O[C@H](CCCCCCCCCCC)CC(=O)NC(CCOP(=O)(O)O)C(=O)NCCCC(CO)NC(=O)C[C@H](O)CCCCCCCCCCC` (stereo partly drawn) [OM-294-MP, 3-[(R)-3-dodecanoyloxytetradecanoylamino]-4-oxo-5-aza-9-[(R)-3-hydroxytetradecanoylamino]-decane-1,10-diol 1-dihydrogenphosphate], the “differenciation of DC-6 into DC-9 cells (dose vs. response of FITC-Dextran incorporation)” value is “outstanding capacity to induce differenciation of DC-6 into DC-9 cells”.
